# Experimental data taken from patent publication US20250073234A1, “COMBINATION THERAPIES INCLUDING PARP1 INHIBITORS” (Cornell University, priority 2022, published 2025).
# Experiments:
# [1] = test system: p62 (SQSTM1) in WPMY-1 cells; assay: p62/SQSTM1 expression in WPMY-1 stromal fibroblasts (immunoblot, qPCR); assay type: cell-based, human
# Text: To knock out PARP-1 in WPMY-1 cells, single-guide RNA sequences targeting PARP-1 exon2 were purchased from Synthego and transduced into WPMY-1 cells with recombinant Streptococcus pyogenes Cas9 protein (Truecut Cas9 Protein v2, Thermo), using the Neon Transfection System 1 (Invitrogen) following the manufacturer's protocol and single clones were expanded and screened by protein immunoblotting. To perform AP1-A binding site editing in the SQSTM promoter in WPMY-1 cells, single-guide RNA sequences targeting the human AP1-A binding site (Synthego) was transduced into cells with a Cas9 protein and a single-stranded donor oligonucleotide (ssODN, IDT) using Neon Electroporation System. Single clones were expanded and screened for AP1-A editing by Sanger sequencing. A point mutation to disrupt the API enhancer element in the p62 promoter was introduced by Site Directed Mutagenesis (Stratagene). Knockdown of MCT1, MCT4, FOS, PARP1, PARP2, CD38, ATG5, and SIRT1-7 genes in WPMY-1 cells were achieved by siRNA transfection using Lipofectamine RNAiMAX Transfection Reagent (Invitrogen). Transient overexpression was achieved by transfection using X-tremeGENE HP transfection reagent (Roche). Transfected cells were examined 48 hours after transfection. Establishing stably GFP or RFP expressing cells was achieved by lentivirus-mediated transduction. Lentivirus were produced in HEK293T cells using X-tremeGENE HP transfection reagent (Roche). Virus-containing supernatants were collected 48, 72 and 96 hours after transfection, filtered to eliminate cells, and supplemented with 8 μg/ml polybrene. Cells were infected with three rounds of viral supernatants and selected with puromycin (3 μg/ml). For autophagy or proteasome inhibition, WPMY-1 cells were treated for 12 hours with 100 nM bafilomycin Al or 12 hours with 20 μM of MG132, respectively, or vehicle (DMSO). […] For MCT1 inhibition, WPMY-1 cells were treated for 48 hours with 10 μM of AZD3965. For cJUN inhibition, WPMY-1 cells were treated for 48 hours with 10 μM of SP600125. For calpains and caspases inhibition, WPMY-1 cells were treated for 48 hours with 1-20 μM of Calpeptin (Tocris) or z-VAD-FMK (Tocris), respectively. For protein synthesis inhibition, WPMY-1 cells were treated with 50 μg/ml of cycloheximide (Sigma). Conditioned media (CM) was generated by collecting supernatant on day 3. CM was transferred to a 15 ml BD Falcon tube and centrifuged at 1300 rpm for 10 minutes. The supernatant was sterile filtered using a […] (Millex-GV) with a 10 ml syringe barrel. The samples were stored at […] for future experiments. Fractionation of the CM was achieved using Amicon Ultra centrifugal filters (3KUltracel, Millipore). The supernatant was centrifuged at 4000 rpm for 1 hour. The supernatant fraction that was >3 kDa remained above the filter and that which was <3 kDa passed through to the lower chamber. The >3-kDa fraction was resuspended in DMEM to the pre-filtration volume.
# WPMY-1 cells = assay: qPCR of CAF / stromal activation markers in WPMY-1 cells; assay type: cell-based, human
# Text: To knock out PARP-1 in WPMY-1 cells, single-guide RNA sequences targeting PARP-1 exon2 were purchased from Synthego and transduced into WPMY-1 cells with recombinant Streptococcus pyogenes Cas9 protein (Truecut Cas9 Protein v2, Thermo), using the Neon Transfection System 1 (Invitrogen) following the manufacturer's protocol and single clones were expanded and screened by protein immunoblotting. To perform AP1-A binding site editing in the SQSTM promoter in WPMY-1 cells, single-guide RNA sequences targeting the human AP1-A binding site (Synthego) was transduced into cells with a Cas9 protein and a single-stranded donor oligonucleotide (ssODN, IDT) using Neon Electroporation System. Single clones were expanded and screened for AP1-A editing by Sanger sequencing. A point mutation to disrupt the API enhancer element in the p62 promoter was introduced by Site Directed Mutagenesis (Stratagene). Knockdown of MCT1, MCT4, FOS, PARP1, PARP2, CD38, ATG5, and SIRT1-7 genes in WPMY-1 cells were achieved by siRNA transfection using Lipofectamine RNAiMAX Transfection Reagent (Invitrogen). Transient overexpression was achieved by transfection using X-tremeGENE HP transfection reagent (Roche). Transfected cells were examined 48 hours after transfection. Establishing stably GFP or RFP expressing cells was achieved by lentivirus-mediated transduction. Lentivirus were produced in HEK293T cells using X-tremeGENE HP transfection reagent (Roche). Virus-containing supernatants were collected 48, 72 and 96 hours after transfection, filtered to eliminate cells, and supplemented with 8 μg/ml polybrene. Cells were infected with three rounds of viral supernatants and selected with puromycin (3 μg/ml). For autophagy or proteasome inhibition, WPMY-1 cells were treated for 12 hours with 100 nM bafilomycin Al or 12 hours with 20 μM of MG132, respectively, or vehicle (DMSO). For PARP1 inhibition, WPMY-1 cells were treated with PJ34 (2 days) or Olaparib (4 days) at the doses indicated in each experiment. For MCT1 inhibition, WPMY-1 cells were treated for 48 hours with 10 μM of AZD3965. For cJUN inhibition, WPMY-1 cells were treated for 48 hours with 10 μM of SP600125. For calpains and caspases inhibition, WPMY-1 cells were treated for 48 hours with 1-20 μM of Calpeptin (Tocris) or z-VAD-FMK (Tocris), respectively. For protein synthesis inhibition, WPMY-1 cells were treated with 50 μg/ml of cycloheximide (Sigma). Conditioned media (CM) was generated by collecting supernatant on day 3. CM was transferred to a 15 ml BD Falcon tube and centrifuged at 1300 rpm for 10 minutes. The supernatant was sterile filtered using a […] (Millex-GV) with a 10 ml syringe barrel. The samples were stored at […] for future experiments. Fractionation of the CM was achieved using Amicon Ultra centrifugal filters (3KUltracel, Millipore). The supernatant was centrifuged at 4000 rpm for 1 hour. The supernatant fraction that was >3 kDa remained above the filter and that which was <3 kDa passed through to the lower chamber. The >3-kDa fraction was resuspended in DMEM to the pre-filtration volume.
# Total RNA from mouse tissues, cells and cultured organoids was extracted using the TRIZOL reagent (Invitrogen) and the RNeasy Mini Kit (QIAGEN), followed by DNase treatment. After quantification using a Nanodrop 1000 spectrophotometer (Thermo Scientific), RNA was either processed for RNA-seq or reverse-transcribed using random primers and MultiScribe Reverse Transcriptase (Applied Biosystems). Gene expression was analyzed by amplifying 20 ng of the complementary DNA using the CFX96 Real Time PCR Detection System with SYBR Green Master Mix (BioRad) and primers described in Table S1. The amplification parameters were set at 95° C. for 30 seconds, 58° C. for 30 seconds, and 72° C. for 30 seconds (40 cycles total). Gene expression values for each sample were normalized to the 18s RNA.
SMILES,"rescue of lactate-induced reduction in p62 ([1]; lactate-treated WPMY-1 cells, 48 h, NAD 150 μM, NR 200 μM)","lactate-induced expression of CAF activation markers (WPMY-1 cells; lactate plus NAD+, 48 h)","SQSTM1 mRNA levels ([1]; WPMY-1 cells, basal and ADT conditions)","p62 expression (protein, SQSTM1 mRNA) ([1]; WPMY-1 cells, PJ34 24 h, Olaparib 48 h)","CAF markers (ACTA2, SFRP1, TGFB, MMP9, HA synthases) (WPMY-1 cells; Olaparib, basal and ADT conditions)",Has1 and Has3 expression (WPMY-1 cells; basal and ADT conditions),Tgfb1 levels (WPMY-1 cells; basal and ADT conditions),"SPINK1 levels (WPMY-1 cells; human prostate cells, ADT conditions)"
NC(=O)c1ccc[n+]([C@@H]2O[C@H](COP(=O)([O-])OP(=O)(O)OC[C@H]3O[C@@H](n4cnc5c(N)ncnc54)[C@H](O)[C@@H]3O)[C@@H](O)[C@H]2O)c1 [NAD^+],completely rescued the lactate-induced reduction in p62,reverted,–,–,–,–,–,–
O=C(c1cc(Cc2n[nH]c(=O)c3ccccc23)ccc1F)N1CCN(C(=O)C2CC2)CC1 [Olaparib],–,–,reduced SQSTM1 mRNA levels,reduced the expression of p62 in a dose-dependent manner,upregulated CAF markers,upregulated,increased levels of Tgfb1,highly upregulated
